This note sets out measurements from patent publication US12012467B2, “Small molecule DCN1 inhibitors and therapeutic methods using the same” (THE REGENTS OF THE UNIVERSITY OF MICHIGAN, priority 2017, dated 2024).

For the experiment, the target named is DCN1 (Homo sapiens (Human), UniProt Q96GG9). Put plainly: FP protein saturation experiment (Kd of fluorescent probe). The note with it: fluorescein-labeled probe; read-out: Binding affinity to DCN1, Kd. How it is done:
The Fluorescence Polarization (FP) competitive binding assays were performed to accurately determine the binding affinities of our DCN1 inhibitors. A novel FAM labeled fluorescent probe compound (46) was designed and synthesized based on one of our potent small molecule DCN1 inhibitors. […] Serial dilutions of proteins were mixed with 46 to a final volume of 200 μl in the assay buffer (100 mM phosphate buffer, pH=6.5, with 0.02% Tween-20 and 2% DMSO). Final probe concentration was 5 nM for both assays. Plates were incubated at room temperature for 30 minutes with gentle shaking to assure equilibrium. FP values in millipolarization units (mP) were measured using the Infinite M-1000 plate reader (Tecan U.S., Research Triangle Park, NC) in Microfluor 1 96-well, black, round-bottom plates (Thermo Scientific, Waltham, MA) at an excitation wavelength of 485 nm and an emission wavelength of 530 nm.
Human DCN1 (residues 58-259) were cloned into a pDEST17 plasmid containing an N-terminal His6 tag. DCN2 (residues 62-259), DCN3 (residues 86-304), DCN4 (residues 102-292) and DCN5 (residues 47-237) were cloned into an N-terminal His6-TEV expression vector. Pure proteins were derived from the same expression and purification protocols. […]

DCN1, sequence (Q96GG9 58-259): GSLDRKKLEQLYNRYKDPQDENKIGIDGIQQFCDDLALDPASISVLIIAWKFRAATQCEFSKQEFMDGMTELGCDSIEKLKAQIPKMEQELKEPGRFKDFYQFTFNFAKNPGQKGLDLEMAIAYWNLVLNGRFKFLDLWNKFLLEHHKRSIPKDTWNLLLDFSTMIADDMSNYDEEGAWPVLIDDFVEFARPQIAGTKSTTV

Broadly, the Kd is the free concentration of one partner at which half of the binding sites on the other are occupied at equilibrium, for simple one-to-one binding. Regarding `CCC(=O)N[C@@H](Cc1nc2ccc(C(C)C)cc2s1)C(=O)N[C@H](CNC(=O)C1CCN(CCOCCOCCOCCNC(=O)c2ccc3c(c2)C(=O)OC32c3ccc(O)cc3Oc3cc(O)ccc32)CC1)C1CCCCC1` [Example 127, N—((S)-2-cyclohexyl-2-((S)-3-(6-isopropylbenzo[d]thiazol-2-yl)-2-propionamidopropanamido)ethyl)-1-(1-(3′,6′-dihydroxy-3-oxo-3H-spiro [isobenzofuran-1,9′-xanthen]-5-yl)-1-oxo-5,8,11-trioxa-2-azatridecan-13-yl)piperidine-4-carboxamide], the Kd worked out at 21.9 nM.
